# Data taken from ChEMBL document CHEMBL1201862, “PubChem BioAssay data set” (2004).
# The source made the active and inactive calls.
# Tests used:
# [1] = target: T1, Adenosylmethionine-8-amino-7-oxononanoate aminotransferase (Mycobacterium tuberculosis, UniProt P9WQ81); assay: Mycobacterium tuberculosis BioA enzyme inhibitor Measured in Biochemical System Using Plate Reader - 2163-02_Inhibitor_Dose_CherryPick_Activity.; assay type: functional, Mycobacterium tuberculosis UT205
# T1 sequence (P9WQ81 whole entry): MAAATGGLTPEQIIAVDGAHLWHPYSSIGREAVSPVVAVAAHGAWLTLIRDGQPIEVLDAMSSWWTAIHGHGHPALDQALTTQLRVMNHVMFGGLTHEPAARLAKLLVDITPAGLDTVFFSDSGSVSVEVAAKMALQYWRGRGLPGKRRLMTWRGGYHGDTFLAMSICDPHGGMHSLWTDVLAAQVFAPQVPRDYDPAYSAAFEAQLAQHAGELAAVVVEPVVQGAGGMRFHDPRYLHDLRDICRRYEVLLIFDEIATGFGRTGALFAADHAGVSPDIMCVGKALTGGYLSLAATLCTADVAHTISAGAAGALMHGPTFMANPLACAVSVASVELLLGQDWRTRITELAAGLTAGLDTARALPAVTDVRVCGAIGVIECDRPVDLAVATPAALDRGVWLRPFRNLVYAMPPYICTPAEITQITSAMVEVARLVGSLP
# [2] = M. tuberculosis H37Rv growth inhibitors, H37Rv strain (AID 1626); assay type: functional
# Leucine aminopeptidase = target: T2, Leucine aminopeptidase (Plasmodium falciparum 3D7, UniProt Q8IL11); assay: P. falciparum M17LAP inhibitors, primary screen, biochemical, fluorogenic H-Leu-NHMec substrate, 1536-well (AID 1619); assay type: functional
# T2 sequence (Q8IL11 whole entry): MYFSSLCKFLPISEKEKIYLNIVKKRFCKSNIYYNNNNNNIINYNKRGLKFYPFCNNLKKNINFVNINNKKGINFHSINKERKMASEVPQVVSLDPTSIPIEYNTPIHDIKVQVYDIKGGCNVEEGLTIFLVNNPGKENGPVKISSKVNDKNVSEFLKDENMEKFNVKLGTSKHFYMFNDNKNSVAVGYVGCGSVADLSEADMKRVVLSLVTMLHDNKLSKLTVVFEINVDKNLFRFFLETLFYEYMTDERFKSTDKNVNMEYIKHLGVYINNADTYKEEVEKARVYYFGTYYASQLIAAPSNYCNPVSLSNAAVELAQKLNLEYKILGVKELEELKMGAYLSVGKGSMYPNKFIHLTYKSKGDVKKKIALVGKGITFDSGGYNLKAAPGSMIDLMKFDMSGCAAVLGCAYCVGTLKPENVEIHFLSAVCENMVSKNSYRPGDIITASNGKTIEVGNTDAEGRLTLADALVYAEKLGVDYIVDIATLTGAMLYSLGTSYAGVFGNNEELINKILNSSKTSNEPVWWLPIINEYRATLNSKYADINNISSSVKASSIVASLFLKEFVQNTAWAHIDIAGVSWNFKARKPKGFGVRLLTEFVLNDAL
# [3] = target: T3, Polyadenylate-binding protein 1 (Homo sapiens, UniProt P11940); assay: PABP1 MLLE–PAM2 binding inhibitor potency, dose response, biochemical, fluorescence polarization, FITC-PAM2 peptide (AID 602259); assay type: functional; conditions: read-out: IC50_Mean
# [4] = target: T3, Polyadenylate-binding protein 1; assay: PABP1 MLLE–PAM2 interaction inhibitors, dose response, miRNA deadenylation inhibitor project, biochemical, fluorescence polarization, Cy5-PAM2 peptide, secondary (AID 602260); assay type: functional; conditions: read-out: IC50_Mean
# [5] = target: T4, Mannose-6-phosphate isomerase (Homo sapiens, UniProt P34949); assay: human PMI inhibitors, high substrate, primary screen, biochemical, fluorescence intensity, high mannose 6-phosphate (AID 1220)
# T4 sequence (P34949 whole entry): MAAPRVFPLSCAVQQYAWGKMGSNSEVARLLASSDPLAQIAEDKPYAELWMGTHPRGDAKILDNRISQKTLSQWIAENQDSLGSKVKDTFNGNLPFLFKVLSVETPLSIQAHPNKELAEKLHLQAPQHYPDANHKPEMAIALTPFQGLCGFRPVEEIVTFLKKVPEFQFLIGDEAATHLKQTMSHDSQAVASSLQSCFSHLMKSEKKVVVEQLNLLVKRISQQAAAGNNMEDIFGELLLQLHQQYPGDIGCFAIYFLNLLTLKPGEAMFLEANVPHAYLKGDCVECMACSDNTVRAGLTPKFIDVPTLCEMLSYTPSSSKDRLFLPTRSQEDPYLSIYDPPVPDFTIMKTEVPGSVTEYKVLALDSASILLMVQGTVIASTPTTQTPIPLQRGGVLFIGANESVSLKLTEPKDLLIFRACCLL
# [6] = cytotoxicity in OVCAR8 ovarian cancer cells, dose response, PAX8 project, cell-based, plate reader, dry powder samples (AID 743197); assay type: functional; conditions: OVCAR-8
# Paired box protein Pax-8 = Paired box protein Pax-8 (Homo sapiens, UniProt Q06710); assay: inhibitors of PAX8-driven TPO luciferase reporter, dose response, RMG-I cells, cherry-pick (AID 687027); assay type: functional, cell-based;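 further: luciferase reporter driven by Pax8 target thyroperoxidase promoter measured by SteadyGlo luminescence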
# [7] = NIH:OVCAR-3 ovarian cancer cell cytotoxicity, dose response, PAX8 inhibitor project, plate reader, dry powder samples (AID 743044); assay type: functional, cell-based
# [8] = IGROV1 ovarian cancer cell cytotoxicity, dose response, PAX8 inhibitor project, plate reader, dry powder samples (AID 743043); assay type: functional, cell-based; conditions: IGROV-1
# [9] = A549 cell cytotoxicity, dose response, cytotoxicity control, plate reader, cherry-pick, antagonist series (AID 743412); assay type: functional, cell-based
# [10] = LGR2 antagonists, dose response, cell-based, HEK293, CRE-luciferase reporter, cherry pick, set 2 (AID 743343); assay type: functional;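 further: transfected cells were stimulated with diluted bursicon conditioned medium after compound addition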
# [11] = HepG2 cell cytotoxicity, dose response, cytotoxicity control, plate reader, cherry-pick, antagonist series (AID 743416); assay type: functional, cell-based
# [12] = HEK293 cell cytotoxicity, dose response, cytotoxicity control, plate reader, cherry-picked samples (AID 743446); assay type: functional, cell-based
# [13] = MC4R antagonists, dose response, counter-screen for LGR2 antagonist project, cell-based, plate reader, cherry pick (AID 743444); assay type: functional;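 further: transfected HEK 293 cells stimulated with alpha-MSH peptide; potency of inhibitors of the alpha-MSH evoked signal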
# [14] = cytotoxicity toward DRD oncogenic fibroblasts, dose response, cell-based, non-viral oncogenic, luminescence (AID 1934); assay type: functional; conditions: Homo sapiens
# BJ [15] = assay: cells; assay type: functional, cell-based; conditions: Homo sapiens
# BJ [16] = assay: cytotoxicity toward BJ-TERT-LT-ST fibroblasts, dose response, cell-based, RAS-independent, luminescence (AID 1935); assay type: functional; conditions: Homo sapiens;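 further: BJ fibroblasts immortalized with TERT plus LT and ST oncogenes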
# [17] = Luminescence Cell-Based Dose Response HTS to Identify Inhibitors of 5'UTR Stem-Loop Driven Prion Protein mRNA Translation in H4 Neuroglioblastoma Cells. [Related pubchem assays: 1827 (Project Summary), 1813 (Primary HTS)]; assay type: functional
# BJ [18] = assay: cytotoxicity toward BJ-TERT fibroblasts, dose response, cell-based, RAS-independent, luminescence (AID 1933); assay type: functional; conditions: Homo sapiens
# [19] = inhibitors of SNCA 5'UTR-driven reporter translation, confirmation, H4 neuroglioma cells, luminescence (AID 1988); assay type: functional, cell-based
# [20] = inhibitors of firefly luciferase expression or activity, dose response, H4 neuroglioma cells, luminescence (AID 1990); assay type: functional, cell-based
# T3 sequence (P11940 whole entry): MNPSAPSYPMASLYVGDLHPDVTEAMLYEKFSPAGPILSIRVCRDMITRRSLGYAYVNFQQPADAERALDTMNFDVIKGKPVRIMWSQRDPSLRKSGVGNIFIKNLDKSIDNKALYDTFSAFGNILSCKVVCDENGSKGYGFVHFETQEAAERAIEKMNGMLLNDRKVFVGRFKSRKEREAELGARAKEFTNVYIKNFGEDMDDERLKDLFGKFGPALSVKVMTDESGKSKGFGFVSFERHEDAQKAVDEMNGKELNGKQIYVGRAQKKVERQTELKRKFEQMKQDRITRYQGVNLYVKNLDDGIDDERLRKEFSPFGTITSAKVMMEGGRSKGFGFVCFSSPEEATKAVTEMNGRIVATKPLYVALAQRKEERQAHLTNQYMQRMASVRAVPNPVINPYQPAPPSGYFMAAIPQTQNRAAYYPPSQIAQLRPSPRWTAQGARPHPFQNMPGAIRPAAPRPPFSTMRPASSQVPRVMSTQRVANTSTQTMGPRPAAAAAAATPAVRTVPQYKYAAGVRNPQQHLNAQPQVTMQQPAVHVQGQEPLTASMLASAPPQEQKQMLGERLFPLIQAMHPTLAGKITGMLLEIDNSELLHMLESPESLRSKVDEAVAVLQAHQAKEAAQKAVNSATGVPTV
# Paired box protein Pax-8, sequence (Q06710 whole entry): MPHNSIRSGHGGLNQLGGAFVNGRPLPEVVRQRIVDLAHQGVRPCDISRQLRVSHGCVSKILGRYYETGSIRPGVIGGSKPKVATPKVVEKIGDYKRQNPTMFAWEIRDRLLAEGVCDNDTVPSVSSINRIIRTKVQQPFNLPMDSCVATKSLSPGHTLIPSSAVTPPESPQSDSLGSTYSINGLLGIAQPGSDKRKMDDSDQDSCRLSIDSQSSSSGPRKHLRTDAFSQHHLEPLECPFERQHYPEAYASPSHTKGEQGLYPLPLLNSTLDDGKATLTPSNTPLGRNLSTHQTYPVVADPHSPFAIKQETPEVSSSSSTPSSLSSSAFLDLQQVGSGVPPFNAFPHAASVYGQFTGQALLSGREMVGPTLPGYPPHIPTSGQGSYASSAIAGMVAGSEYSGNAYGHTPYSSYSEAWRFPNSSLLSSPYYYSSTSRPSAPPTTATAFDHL
compound,measurement,setting,value
CCOC(=O)c1c(N)sc(C(N)=O)c1C,AC50,[1],5.1 µM (active)
O=C(Nc1nc2ccccc2s1)C1c2ccccc2Oc2ccccc21,IC50,[2],> 100 µM (active)
COc1ccc(NC(=O)CSc2nnc[nH]2)c([N+](=O)[O-])c1,IC50,Leucine aminopeptidase,17 µM (active)
COC(=O)c1c(NC(=O)C2C3C=CC(CC3)C2C(=O)O)sc(C)c1C (stereo unspecified),IC50,Leucine aminopeptidase,19 µM (active)
Nc1cccnc1Sc1cccc(Cl)c1,IC50,[3],> 66 µM (inactive)
same,IC50,[4],> 66 µM (inactive)
same,IC50,[5],> 50 µM (not active)
O=C(Nc1nccs1)c1ccc(NC(=O)C2CC=CCC2C(=O)O)cc1 (stereo unspecified),IC50,Leucine aminopeptidase,23.2 µM (active)
OC[C@@H]1[C@H](c2ccc(-c3ccc(F)cc3)cc2)[C@@H]2CN(CCC(F)(F)F)CCCCN12,AC50,[6],47.5 µM (active)
same,AC50,Paired box protein Pax-8,34.9 µM (active)
same,AC50,[7],25.2 µM (active)
same,AC50,[8],30 µM (active)
COC(=O)c1cccc(NC(=O)c2ccc(S(=O)(=O)N(C)c3ccccc3OC)cc2)c1,AC50,[9],22.7 µM (active)
same,AC50,[10],6.56 µM (active)
same,AC50,[11],28.9 µM (active)
same,AC50,[12],35.8 µM (active)
same,AC50,[13],7.98 µM (active)
CCOc1ccc(NC(=O)CSc2nc(C)cc(C)n2)cc1,IC50,Leucine aminopeptidase,4.3 µM (active)
CCOC(=O)c1ccc2c(c1)nc(SCc1cn3ccsc3n1)n2CC,AC50,[1],1.16 µM (active)
CCOC(=O)c1cnc(Nc2nc3ccccc3o2)nc1C,EC50,[14],11.7 µM (active)
same,AC50,[9],16.9 µM (active)
same,EC50,BJ [15],17 µM (active)
same,EC50,BJ [16],> 150 µM (inconclusive)
same,EC50,[17],0.35 µM (active)
same,AC50,[10],1.11 µM (active)
same,AC50,[11],5.13 µM (active)
same,AC50,[12],51.2 µM (active)
same,AC50,[13],1.56 µM (active)
same,EC50,BJ [18],11.1 µM (inconclusive)
same,EC50,[19],0.278 µM (active)
same,EC50,[20],0.382 µM (active)
